Reference: patent US6525001B1, “Substituted pyrimidine and pyridine herbicides” (Mid-American Commercialization Corporation, priority 1997, dated 2003)

Columns and labels:
Type in all cases: in vivo
Design in all cases: key: 0 is no effect; 10 is complete control
[1] = system: wheat (Triticum aestivum); test: Test B pre-/postemergence
How it was run: (§1)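 Compounds in a surfactant-containing, non-phytotoxic solvent blend are applied to freshly planted seed (preemergence) and, concurrently, to seedlings of 2 to 18 cm at 1–4 leaves (postemergence). Plants stay in the greenhouse twelve to sixteen days and are then scored visually from 0 (no effect) to 10 (complete control).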

[2] = system: purple nutsedge (Cyperus rotundus); test: Test B pre-/postemergence; details: Preemergence
How it was run: as §1

[3] = system: cocklebur (Xanthium strumarium); test: Test B pre-/postemergence
How it was run: as §1

[4] = system: momingglory (Ipomoea hederacea); test: Test B pre-/postemergence
How it was run: as §1

[5] = system: soybean (Glycine max); test: Test B pre-/postemergence
How it was run: as §1

[6] = system: velvetleaf (Abutilon theophrasti); test: Test B pre-/postemergence
How it was run: as §1

[7] = system: broadleaf signalgrass (Brachiaria decumbens); test: Test B pre-/postemergence
How it was run: as §1

[8] = system: bedstraw (Galium aparine); test: Test B pre-/postemergence; details: Postemergence
How it was run: as §1

[9] = system: blackgrass (Alopecurus myosuroides); test: Test B pre-/postemergence
How it was run: as §1

[10] = system: crabgrass (Digitaria sanguinalis); test: Test B pre-/postemergence
How it was run: as §1

[11] = system: sugar beet (Beta vulgaris); test: Test B pre-/postemergence
How it was run: as §1

[12] = system: corn (Zea mays); test: Test B pre-/postemergence
How it was run: as §1

[13] = system: giant foxtail (Setaria faberii); test: Test B pre-/postemergence
How it was run: as §1

[14] = system: wild oat (Avena fatua); test: Test B pre-/postemergence
How it was run: as §1

[15] = system: pigweed (Amaranthus retroflexus); test: Test B pre-/postemergence
How it was run: as §1

[16] = system: rape (Brassica napus); test: Test B pre-/postemergence
How it was run: as §1

[17] = system: smallflower flatsedge (Cyperus difformis); test: Test B flood test
How it was run: (§2)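 Read-out is a visual response score from 0 (no effect) to 10 (complete control), assigned by comparison with untreated controls. Treatment was applied at the 2-leaf stage, and plants stayed in the greenhouse for twelve to sixteen days before scoring.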

[18] = system: bamyardgrass (Echinochloa crus-galli); test: Test B flood test
How it was run: as §2

[19] = system: duck salad (Heteranthera limosa); test: Test B flood test
How it was run: as §2

[20] = system: rice (Oryza sativa); test: Test B flood test
How it was run: as §2

[21] = Preemergence, Rate 62 g/ha, scale of 0 to 10
[22] = Rate 62 g/ha, Postemergence (flood test)
[23] = Rate 125 g/ha, Postemergence section (flood test species)
[24] = Rate 250 g/ha, Postemergence (flood test species)

For `O=C(c1cccc(C(F)(F)F)c1)c1ccnc(-c2ccc(F)cc2F)n1` [Compound 76], the “Plant response rating, Wheat” value [1, 21] was 0, the “Wheat plant response rating” value ([1]; Rate 62 g/ha, Postemergence) was 0 and the “Wheat plant response rating” value ([1]; Rate 125 g/ha, Postemergence) was 0. The “Plant response rating, Wheat” value ([1]; Rate 125 g/ha, Preemergence) was 0, the “Plant response rating, Wheat” value ([1]; Rate 250 g/ha, Postemergence) was 0 and the “Plant response rating, Wheat” value ([1]; Rate 250 g/ha, Preemergence) was 0. The “Plant response rating, Nutsedge” value ([2]; Rate 62 g/ha, scale of 0 to 10) was 0, the “Plant response rating, Nutsedge” value ([2]; Rate 125 g/ha) was 0 and the “Plant response rating, Cocklebur” value [3, 21] was 0. The “Cocklebur plant response rating” value ([3]; Rate 62 g/ha, Postemergence) was 1, the “Cocklebur plant response rating” value ([3]; Rate 125 g/ha, Postemergence) was 3 and the “Plant response rating, Cocklebur” value ([3]; Rate 125 g/ha, Preemergence) was 0. For the same compound, the “Plant response rating, Cocklebur” value ([3]; Rate 250 g/ha, Postemergence) was 4, the “Plant response rating, Cocklebur” value ([3]; Rate 250 g/ha, Preemergence) was 0 and the “Plant response rating, Morningglory” value [4, 21] was 0. For the same compound, the “Morningglory plant response rating” value ([4]; Rate 62 g/ha, Postemergence) was 0, the “Morningglory plant response rating” value ([4]; Rate 125 g/ha, Postemergence) was 0 and the “Plant response rating, Morningglory” value ([4]; Rate 125 g/ha, Preemergence) was 0. For the same compound, the “Plant response rating, Morningglory” value ([4]; Rate 250 g/ha, Postemergence) was 1, the “Plant response rating, Morningglory” value ([4]; Rate 250 g/ha, Preemergence) was 0 and the “Plant response rating, Soybean” value [5, 21] was 0. For the same compound, the “Soybean plant response rating” value ([5]; Rate 62 g/ha, Postemergence) was 0, the “Soybean plant response rating” value ([5]; Rate 125 g/ha, Postemergence) was 0 and the “Plant response rating, Soybean” value ([5]; Rate 125 g/ha, Preemergence) was 0. For the same compound, the “Plant response rating, Soybean” value ([5]; Rate 250 g/ha, Postemergence) was 1, the “Plant response rating, Soybean” value ([5]; Rate 250 g/ha, Preemergence) was 0 and the “Plant response rating, Velvetleaf” value [6, 21] was 0. For the same compound, the “Velvetleaf plant response rating” value ([6]; Rate 62 g/ha, Postemergence) was 0, the “Velvetleaf plant response rating” value ([6]; Rate 125 g/ha, Postemergence) was 1 and the “Plant response rating, Velvetleaf” value ([6]; Rate 125 g/ha, Preemergence) was 0. For the same compound, the “Plant response rating, Velvetleaf” value ([6]; Rate 250 g/ha, Postemergence) was 1, the “Plant response rating, Velvetleaf” value ([6]; Rate 250 g/ha, Preemergence) was 0 and the “B. signalgrass plant response rating” value ([7]; Rate 62 g/ha, Postemergence) was 0. For the same compound, the “B. signalgrass plant response rating” value ([7]; Rate 62 g/ha, Preemergence) was 0, the “B. signalgrass plant response rating” value ([7]; Rate 125 g/ha, Postemergence) was 0 and the “Plant response rating, B. signalgrass” value ([7]; Rate 125 g/ha, Preemergence) was 0. The “Plant response rating, B. signalgrass” value ([7]; Rate 250 g/ha, Postemergence) was 0, the “Plant response rating, B. signalgrass” value ([7]; Rate 250 g/ha, Preemergence) was 0 and the “Bedstraw plant response rating” value ([8]; Rate 62 g/ha) was 0. For the same compound, the “Bedstraw plant response rating” value ([8]; Rate 125 g/ha) was 0, the “Plant response rating, Bedstraw” value ([8]; Rate 250 g/ha) was 0 and the “Plant response rating, Blackgrass” value [9, 21] was 0. For the same compound, the “Blackgrass plant response rating” value ([9]; Rate 62 g/ha, Postemergence) was 0, the “Blackgrass plant response rating” value ([9]; Rate 125 g/ha, Postemergence) was 0 and the “Plant response rating, Blackgrass” value ([9]; Rate 125 g/ha, Preemergence) was 0. For the same compound, the “Plant response rating, Blackgrass” value ([9]; Rate 250 g/ha, Postemergence) was 0, the “Plant response rating, Blackgrass” value ([9]; Rate 250 g/ha, Preemergence) was 0 and the “Plant response rating, Crabgrass” value [10, 21] was 0. The “Crabgrass plant response rating” value ([10]; Rate 62 g/ha, Postemergence) was 0, the “Crabgrass plant response rating” value ([10]; Rate 125 g/ha, Postemergence) was 0 and the “Plant response rating, Crabgrass” value ([10]; Rate 125 g/ha, Preemergence) was 0. The “Plant response rating, Crabgrass” value ([10]; Rate 250 g/ha, Postemergence) was 1, the “Plant response rating, Crabgrass” value ([10]; Rate 250 g/ha, Preemergence) was 0 and the “Plant response rating, Sugarbeets” value [11, 21] was 0. For the same compound, the “Sugarbeets plant response rating” value ([11]; Rate 62 g/ha, Postemergence) was 1, the “Sugarbeets plant response rating” value ([11]; Rate 125 g/ha, Postemergence) was 2 and the “Plant response rating, Sugarbeets” value ([11]; Rate 125 g/ha, Preemergence) was 0. The “Plant response rating, Sugarbeets” value ([11]; Rate 250 g/ha, Postemergence) was 3, the “Plant response rating, Sugarbeets” value ([11]; Rate 250 g/ha, Preemergence) was 0 and the “Plant response rating, Corn” value [12, 21] was 0. For the same compound, the “Corn plant response rating” value ([12]; Rate 62 g/ha, Postemergence) was 1, the “Corn plant response rating” value ([12]; Rate 125 g/ha, Postemergence) was 1 and the “Plant response rating, Corn” value ([12]; Rate 125 g/ha, Preemergence) was 0. The “Plant response rating, Corn” value ([12]; Rate 250 g/ha, Postemergence) was 1, the “Plant response rating, Corn” value ([12]; Rate 250 g/ha, Preemergence) was 0 and the “Plant response rating, Giant foxtail” value [13, 21] was 0. For the same compound, the “Giant foxtail plant response rating” value ([13]; Rate 62 g/ha, Postemergence) was 0, the “Giant foxtail plant response rating” value ([13]; Rate 125 g/ha, Postemergence) was 0 and the “Plant response rating, Giant foxtail” value ([13]; Rate 125 g/ha, Preemergence) was 0. For the same compound, the “Plant response rating, Giant foxtail” value ([13]; Rate 250 g/ha, Postemergence) was 1, the “Plant response rating, Giant foxtail” value ([13]; Rate 250 g/ha, Preemergence) was 0 and the “Plant response rating, Wild oats” value [14, 21] was 0. For the same compound, the “Wild oats plant response rating” value ([14]; Rate 62 g/ha, Postemergence) was 0, the “Wild oats plant response rating” value ([14]; Rate 125 g/ha, Postemergence) was 0 and the “Plant response rating, Wild oats” value ([14]; Rate 125 g/ha, Preemergence) was 0. The “Plant response rating, Wild oats” value ([14]; Rate 250 g/ha, Postemergence) was 0, the “Plant response rating, Wild oats” value ([14]; Rate 250 g/ha, Preemergence) was 0 and the “Plant response rating, Redroot pigweed” value [15, 21] was 0. For the same compound, the “Redroot pigweed plant response rating” value ([15]; Rate 62 g/ha, Postemergence) was 1, the “Redroot pigweed plant response rating” value ([15]; Rate 125 g/ha, Postemergence) was 1 and the “Plant response rating, Redroot pigweed” value ([15]; Rate 125 g/ha, Preemergence) was 0. For the same compound, the “Plant response rating, Redroot pigweed” value ([15]; Rate 250 g/ha, Postemergence) was 2, the “Plant response rating, Redroot pigweed” value ([15]; Rate 250 g/ha, Preemergence) was 0 and the “Plant response rating, Rape” value [16, 21] was 0. The “Rape plant response rating” value ([16]; Rate 62 g/ha, Postemergence) was 1, the “Rape plant response rating” value ([16]; Rate 125 g/ha, Postemergence) was 2 and the “Plant response rating, Rape” value ([16]; Rate 125 g/ha, Preemergence) was 0. The “Plant response rating, Rape” value ([16]; Rate 250 g/ha, Postemergence) was 2, the “Plant response rating, Rape” value ([16]; Rate 250 g/ha, Preemergence) was 0 and the “S. Flatsedge plant response rating” value [17, 22] was 0. For the same compound, the “S. Flatsedge plant response rating” value [17, 23] was 0, the “Plant response rating, S. Flatsedge” value [17, 24] was 0 and the “Barnyardgrass plant response rating” value [18, 22] was 0. The “Barnyardgrass plant response rating” value [18, 23] was 0, the “Plant response rating, Barnyardgrass” value [18, 24] was 0 and the “Ducksalad plant response rating” value [19, 22] was 0. For the same compound, the “Ducksalad plant response rating” value [19, 23] was 0, the “Plant response rating, Ducksalad” value [19, 24] was 0 and the “Rice plant response rating” value [20, 22] was 0. For the same compound, the “Rice plant response rating” value [20, 23] was 0 and the “Plant response rating, Rice” value [20, 24] was 0.
